Two compounds from ChEMBL document CHEMBL1649180, “Early postpartum pharmacokinetics of lopinavir initiated intrapartum in Thai women” (Antimicrob Agents Chemother, 2009) can be followed below.

Data set [1] is described as follows: Drug level in HIV-infected Thai pregnant women serum at 400 mg, po bid initiated intrapartum administered for 30 days in combination with 100 mg, po bid ritonavir measured 4 hrs post last dose. In kind it is ADME, organism-based. The note with it: female, human, read-out: Drug uptake.
Data set [2] can be described thus: Cmax in HIV-infected Thai pregnant women at 400 mg, po bid initiated intrapartum in combination with 100 mg, po bid ritonavir measured within 72 hrs postpartum. In kind it is ADME, organism-based. On the set-up: dose 400 mg, route oral. The conditions noted are these: female, human, in vivo.
Data set [3] deals with Serum. Briefly: Ratio of drug level in 4 hrs to 30 days post last dose of HIV-infected Thai pregnant women serum at 400 mg, po bid initiated intrapartum in combination with 100 mg, po bid ritonavir. In kind it is ADME, organism-based. The conditions noted are these: human, in vivo.
Data set [4] is described as follows: Drug level in HIV-infected Thai pregnant women serum at 400 mg, po bid initiated intrapartum in combination with 100 mg, po bid ritonavir measured 4 hrs post last dose. The conditions noted are these: female, human, read-out: Drug uptake. Type of data set: ADME, organism-based.
Data set [5] in a line: Drug level in HIV-infected Thai pregnant women serum at 400 mg, po bid initiated intrapartum administered for 30 days in combination with 100 mg, po bid ritonavir measured 2 hrs post last dose. Type of data set: ADME, organism-based. The note with it: female, human, read-out: Drug uptake.
Data set [6] deals with Serum. Briefly: Ratio of drug level before intrapartum initiation to 30 days pre-last dose of HIV-infected Thai pregnant women serum at 400 mg, po bid in combination with 100 mg, po bid ritonavir. In kind it is ADME, organism-based. The conditions noted are these: human, in vivo, 720 h.
Data set [7] in a line: Drug level in HIV-infected Thai pregnant women serum at 400 mg, po bid initiated intrapartum administered for 30 days in combination with 100 mg, po bid ritonavir measured before administering last dose. The note with it: female, human, read-out: Drug uptake. Type of data set: ADME, organism-based.
Data set [8] in a line: Tmax in HIV-infected Thai pregnant women at 400 mg, po bid initiated intrapartum in combination with 100 mg, po bid ritonavir measured within 72 hrs postpartum. Type of data set: ADME, organism-based. The note with it: female, human, in vivo.
Data set [9] has as its system Serum. Put plainly: Drug level in HIV-infected Thai pregnant women serum before intrapartum initiation of 400 mg, po bid in combination with 100 mg, po bid ritonavir. The conditions noted are these: human, in vivo. Type of data set: ADME, organism-based.
Data set [10] is described as follows: Drug level in HIV-infected Thai pregnant women serum at 400 mg, po bid initiated intrapartum in combination with 100 mg, po bid ritonavir measured 12 hrs post last dose. In kind it is ADME, organism-based. The conditions noted are these: female, human, read-out: Drug uptake.
Data set [11] in a line: Drug level in HIV-infected Thai pregnant women serum at 400 mg, po bid initiated intrapartum in combination with 100 mg, po bid ritonavir measured 2 hrs post last dose. Type of data set: ADME, organism-based. The note with it: female, human, read-out: Drug uptake.
A further data set has as its system Homo sapiens. Put plainly: Toxicity in HIV-infected Thai pregnant women assessed as adverse effect at 400 mg, po bid initiated intrapartum administered for 30 days in combination with 100 mg, po bid ritonavir. In kind it is organism-based. The note with it: in vivo, 720 h.
Data set [12] in a line: AUC (0 to 12 hrs) in HIV-infected Thai pregnant women at 400 mg, po bid initiated intrapartum in combination with 100 mg, po bid ritonavir measured within 72 hrs postpartum. Type of data set: ADME, organism-based. On the set-up: time < 12 hr, dose 400 mg, route oral. The note with it: female, human, plasma.
The subject of data set [13] is Serum. Put plainly: Ratio of drug level in 2 hrs to 30 days post last dose of HIV-infected Thai pregnant women serum at 400 mg, po bid initiated intrapartum in combination with 100 mg, po bid ritonavir. Type of data set: ADME, organism-based. The conditions noted are these: human, in vivo.
A short description of data set [14]: Drug level in HIV-infected Thai pregnant women serum at 100 mg, po bid initiated intrapartum in combination with 400 mg, po bid Lopinavir measured 4 hrs post last dose. In kind it is ADME, organism-based. The note with it: female, human, read-out: Drug uptake.
The nature of data set [15]: Cmax in HIV-infected Thai pregnant women at 100 mg, po bid initiated intrapartum in combination with 400 mg, po bid Lopinavir measured within 72 hrs postpartum. In kind it is ADME, organism-based. On the set-up: dose 100 mg, route oral. The note with it: female, human, in vivo.
A short description of data set [16]: Drug level in HIV-infected Thai pregnant women serum at 100 mg, po bid initiated intrapartum administered for 30 days in combination with 400 mg, po bid Lopinavir measured 4 hrs post last dose. The note with it: female, human, read-out: Drug uptake. In kind it is ADME, organism-based.
Data set [17] concerns Serum. Put plainly: Ratio of drug level in 2 hrs to 30 days post last dose of HIV-infected Thai pregnant women serum at 100 mg, po bid initiated intrapartum in combination with 400 mg, po bid Lopinavir. The note with it: human, in vivo. In kind it is ADME, organism-based.
For data set [18], the system named is Serum. Put plainly: Ratio of drug level in 4 hrs to 30 days post last dose of HIV-infected Thai pregnant women serum at 100 mg, po bid initiated intrapartum in combination with 400 mg, po bid Lopinavir. In kind it is ADME, organism-based. The note with it: human, in vivo.
Data set [19] can be described thus: Drug level in HIV-infected Thai pregnant women serum at 100 mg, po bid initiated intrapartum administered for 30 days in combination with 400 mg, po bid Lopinavir measured before administering last dose. In kind it is ADME, organism-based. The conditions noted are these: female, human, read-out: Drug uptake.
For data set [20], the system named is Serum. Briefly: Ratio of drug level before intrapartum initiation to 30 days pre-last dose of HIV-infected Thai pregnant women serum at 100 mg, po bid in combination with 400 mg, po bid Lopinavir. The note with it: human, in vivo, 720 h. Type of data set: ADME, organism-based.
Data set [21] in a line: Drug level in HIV-infected Thai pregnant women serum at 100 mg, po bid initiated intrapartum in combination with 400 mg, po bid Lopinavir measured 12 hrs post last dose. Type of data set: ADME, organism-based. The note with it: female, human, read-out: Drug uptake.
The nature of data set [22]: Drug level in HIV-infected Thai pregnant women serum at 100 mg, po bid initiated intrapartum in combination with 400 mg, po bid Lopinavir measured 2 hrs post last dose. The conditions noted are these: female, human, read-out: Drug uptake. Type of data set: ADME, organism-based.
Data set [23] is described as follows: Drug level in HIV-infected Thai pregnant women serum at 100 mg, po bid initiated intrapartum administered for 30 days in combination with 400 mg, po bid Lopinavir measured 2 hrs post last dose. Type of data set: ADME, organism-based. The conditions noted are these: female, human, read-out: Drug uptake.
Data set [24] can be described thus: AUC (0 to 12 hrs) in HIV-infected Thai pregnant women at 100 mg, po bid initiated intrapartum in combination with 400 mg, po bid Lopinavir measured within 72 hrs postpartum. In kind it is ADME, organism-based. Further details: time < 12 hr, dose 100 mg, route oral. The conditions noted are these: female, human, plasma.
Data set [25] relates to Serum. Briefly: Drug level in HIV-infected Thai pregnant women serum before intrapartum initiation of 100 mg, po bid in combination with 400 mg, po bid Lopinavir. The conditions noted are these: human, in vivo. Type of data set: ADME, organism-based.
Data set [26] in a line: Tmax in HIV-infected Thai pregnant women at 100 mg, po bid initiated intrapartum in combination with 400 mg, po bid Lopinavir measured within 72 hrs postpartum. Type of data set: ADME, organism-based. The conditions noted are these: female, human, in vivo.

Consider `Cc1cccc(C)c1OCC(=O)N[C@@H](Cc1ccccc1)[C@@H](O)C[C@H](Cc1ccccc1)NC(=O)[C@H](C(C)C)N1CCCNC1=O` [LOPINAVIR], for which the figures for the concentration at 4 h in data set [1] and in [4] were 13 µg/mL and 10.8 µg/mL, respectively. In addition, in data set [2], the Cmax turned out to be 11.2 µg/mL. Besides, the Drug uptake was 0.81 in the data set on Serum [3], 0.66 in the data set on Serum [6], 6.08 µg/mL in the data set with Serum [9] and 0.85 with Serum [13]. In addition, the concentration at 2 h in [5] turned out to be 11.7 µg/mL; in [11], 10.5 µg/mL. For the same compound, in [7], the concentration at 720 h amounted to 9.17 µg/mL. Also, in data set [8], the Tmax was 3.9 h. For the same compound, the concentration at 12 h in data set [10] stood at 5.18 µg/mL. Further, the Activity result with Homo sapiens was “Non-toxic”. For the same compound, the exposure (AUC) at 12 h in data set [12] is 99.7 µg·h/mL.

For `CC(C)c1nc(CN(C)C(=O)N[C@H](C(=O)N[C@@H](Cc2ccccc2)C[C@H](O)[C@H](Cc2ccccc2)NC(=O)OCc2cncs2)C(C)C)cs1` [RITONAVIR], the results for the concentration at 4 h in data set [14] and in data set [16] were 0.58 µg/mL and 0.81 µg/mL, respectively. Moreover, the Cmax in data set [15] was determined as 0.6 µg/mL. The Drug uptake was 0.76 in the data set with Serum [17], 0.68 in the data set with Serum [18], 0.54 with Serum [20] and 0.16 µg/mL in the data set on Serum [25]. Moreover, the concentration at 720 h in [19] stood at 0.29 µg/mL. In data set [21], the concentration at 12 h turned out to be 0.1 µg/mL. The concentration at 2 h in data set [22] was 0.45 µg/mL; in [23], 0.61 µg/mL. Also, in data set [24], the AUC at 12 h was determined as 4.27 µg·h/mL. Besides, the Tmax in [26] came to 3.9 h.

Usually Cmax stands for the maximum level reached in the sampled fluid or tissue. What is called Tmax is the time at which the peak concentration occurs. The term AUC denotes the area under the concentration-time curve, a measure of exposure.
